#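 The concentration for 50% growth inhibition is given as GI50. At the TGI there is no net growth.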
# Experiments:
# Experiment in all cases: DTP human tumour cell line panel, 384-well format
# [1] = system: RPMI-8226 leukemia
# [2] = system: NCI/ADR-RES ovarian
# [3] = system: MDA-MB-435 melanoma
# [4] = system: OVCAR-8 ovarian
# [5] = system: OVCAR-4 ovarian
# [6] = system: OVCAR-5 ovarian
# [7] = system: UO-31 renal
# [8] = system: SW-620 colon
# [9] = system: SN12C renal
# [10] = system: HOP-62 NSCLC
# [11] = system: MDA-MB-468 breast
# [12] = system: KM12 colon
# [13] = system: NCI-H522 lung
# [14] = system: ACHN renal
# [15] = system: BT-549 breast
# [16] = system: A498 renal
# [17] = system: COLO 205 colon
# [18] = system: SF-295 CNS
# [19] = system: HCC-2998 colon
# [20] = system: 786-0 renal
# [21] = system: OVCAR-3 ovarian
# [22] = system: A549 NSCLC
# [23] = system: NCI-H460 NSCLC
# [24] = system: DU-145 prostate
# [25] = system: HS 578T breast
# [26] = system: T-47D breast
# [27] = system: UACC-257 melanoma
# [28] = system: HCT-15 colon
# [29] = system: HL-60(TB) leukemia
# [30] = system: LOX IMVI melanoma
# [31] = system: EKVX NSCLC
# [32] = system: K-562 leukemia
# [33] = system: M14 melanoma
# [34] = system: PC-3 prostate
# [35] = system: HT29 colon
# [36] = system: SNB-19 CNS
# [37] = system: NCI-H322M lung
# [38] = system: MOLT-4 leukemia
# [39] = system: SK-MEL-5 melanoma
# [40] = system: IGROV1 ovarian
# [41] = system: CAKI-1 renal
# [42] = system: RXF 393 renal
# [43] = system: MDA-MB-231 breast
# [44] = system: NCI-H23 lung
# [45] = system: MALME-3M melanoma
# [46] = system: SK-MEL-28 melanoma
# [47] = system: UACC-62 melanoma
# [48] = system: TK-10 renal
# [49] = system: SR leukemia
# [50] = system: SF-268 CNS
# [51] = system: NCI-H226 lung
# [52] = system: SF-539 CNS
# [53] = system: SK-OV-3 ovarian
# [54] = system: CCRF-CEM leukemia
# [55] = system: MCF7 breast
# [56] = system: HOP-92 NSCLC
# [57] = system: SNB-75 CNS
compound,measurement,setting,value
C=CC(=O)N1CCN(c2ncnc3c(F)c(-c4c(O)cccc4F)c(Cl)cc23)CC1,GI50,[1],1.6 µM
same,TGI,[1],3 µM
same,GI50,[2],14 µM
same,TGI,[2],28.3 µM
same,GI50,[3],3.91 µM
same,TGI,[3],13.9 µM
same,GI50,[4],2.46 µM
same,TGI,[4],6.4 µM
same,GI50,[5],5.97 µM
same,TGI,[5],18.2 µM
same,GI50,[6],3.66 µM
same,TGI,[6],11.9 µM
same,GI50,[7],3.58 µM
same,TGI,[7],12.5 µM
same,GI50,[8],3.78 µM
same,TGI,[8],11.3 µM
same,GI50,[9],4.48 µM
same,TGI,[9],15.4 µM
same,GI50,[10],1.21 µM
same,TGI,[10],4.8 µM
same,GI50,[11],2.34 µM
same,TGI,[11],4.63 µM
same,GI50,[12],2.92 µM
same,TGI,[12],9.85 µM
same,GI50,[13],3.1 µM
same,TGI,[13],8.43 µM
same,GI50,[14],2.27 µM
same,TGI,[14],5.89 µM
same,GI50,[15],1.73 µM
same,TGI,[15],4.14 µM
same,GI50,[16],2.05 µM
same,TGI,[16],6.37 µM
same,GI50,[17],2.33 µM
same,TGI,[17],5.19 µM
same,GI50,[18],2.97 µM
same,TGI,[18],8.83 µM
same,GI50,[19],2.27 µM
same,TGI,[19],4.32 µM
same,GI50,[20],3.34 µM
same,TGI,[20],12.4 µM
same,GI50,[21],1.83 µM
same,TGI,[21],3.9 µM
same,GI50,[22],2.36 µM
same,TGI,[22],5.74 µM
same,GI50,[23],2.78 µM
same,TGI,[23],7.79 µM
same,GI50,[24],3.5 µM
same,TGI,[24],12.5 µM
same,GI50,[25],1.71 µM
same,TGI,[25],3.87 µM
same,GI50,[26],6.31 µM
same,TGI,[26],18.4 µM
same,GI50,[27],3.65 µM
same,TGI,[27],9.18 µM
same,GI50,[28],2.5 µM
same,TGI,[28],6.08 µM
same,GI50,[29],1.68 µM
same,TGI,[29],3.08 µM
same,GI50,[30],2.08 µM
same,TGI,[30],5.21 µM
same,GI50,[31],5.74 µM
same,TGI,[31],18 µM
same,GI50,[32],5.53 µM
same,TGI,[32],18.1 µM
same,GI50,[33],1.98 µM
same,TGI,[33],4.68 µM
same,GI50,[34],2.64 µM
same,TGI,[34],8.13 µM
same,GI50,[35],2.97 µM
same,TGI,[35],8.72 µM
same,GI50,[36],4.08 µM
same,TGI,[36],14.9 µM
same,GI50,[37],3.22 µM
same,TGI,[37],10.3 µM
same,GI50,[38],2.08 µM
same,TGI,[38],3.62 µM
same,GI50,[39],2.39 µM
same,TGI,[39],5.66 µM
same,GI50,[40],3.5 µM
same,TGI,[40],11.8 µM
same,GI50,[41],3.07 µM
same,TGI,[41],12.9 µM
same,GI50,[42],1.91 µM
same,TGI,[42],4.03 µM
same,GI50,[43],5.17 µM
same,TGI,[43],18.5 µM
same,GI50,[44],0.0694 µM
same,TGI,[44],0.94 µM
same,GI50,[45],3.58 µM
same,TGI,[45],9.59 µM
same,GI50,[46],3.17 µM
same,TGI,[46],13.7 µM
same,GI50,[47],1.59 µM
same,TGI,[47],4.76 µM
same,GI50,[48],8.84 µM
same,TGI,[48],30.7 µM
same,GI50,[49],1 µM
same,TGI,[49],2.18 µM
same,GI50,[50],2.09 µM
same,TGI,[50],5.38 µM
same,GI50,[51],2.39 µM
same,TGI,[51],7.65 µM
same,GI50,[52],2.4 µM
same,TGI,[52],5.02 µM
same,GI50,[53],4.14 µM
same,TGI,[53],16.1 µM
same,GI50,[54],1.83 µM
same,TGI,[54],3.34 µM
same,GI50,[55],2.95 µM
same,TGI,[55],9.01 µM
same,GI50,[56],4.73 µM
same,TGI,[56],16.8 µM
same,GI50,[57],3.41 µM
same,TGI,[57],16.7 µM

# Reference: PubChem BioAssay (NCI)
